Reference: paper PMC8244912, “An oxytocin/vasopressin-related neuropeptide modulates social foraging behavior in the clonal raider ant” (PLoS Biology, 2021)
“Also recorded” adds a separate entry of the source. Where a SMILES comes first, the peptide text is derived from it. Bridges are numbered along the chain shown (N, C = ends).

System: O. biroi inotocin receptor splice variant ObiroiItr_H (lacks TM4-7)
Experiment: Calcium imaging (fura-2), truncated receptor isoform H
Assay type: cell-based, Ooceraea biroi
Description: The full-length inotocin receptor cDNA sequence that was cloned and used for calcium assays is ObiroiItr_A (GenBank MW660838; for protein sequence, see S1 Fig). We also tested splice variant ObiroiItr_H (GenBank MW660845; for protein sequence, see S1 Fig), which lacks TM4-7, for calcium activity.
Experiments were conducted following Garrison J.L., et al 2012 [8] with modifications. Human embryonic kidney 293T cells (HEK293T) were cultured in DMEM and supplemented with 10% FBS at 37 °C in a cell incubator containing 5% CO^2. Cells were grown in 35 mm MatTek glass bottom dishes to a level of 60 – 70% confluency. Cells were transfected with a 1:1 ratio of PCDNA3.3 containing ~ 1μg of itcR cDNA (full-length isoform A or truncated isoform H) (See S1 Fig for isoforms) and pcDNA3-alpha 16 (encoding promiscuous G protein 16) using Lipofectamine 2000. Cells were incubated for 24 h at 37 °C and then transferred to 28 °C for another 16-24 h. For control experiments, empty vector was also transfected. On the day of the experiment, the cells were loaded with […] fura-2/AM (Invitrogen) for 25 min at 37 °C. Inotocin peptide diluted in Ringer’s solution was applied to the cells for 15 s with a peristaltic pump, and fluorescence at 510 nm was monitored (excitation at 340/380 nm) using a MetaFluor calcium imaging system with a Nikon Eclipse TE2000U microscope.

CC[C@H](C)[C@@H]1NC(=O)[C@H](CC(C)C)NC(=O)[C@@H](N)CSSC[C@@H](C(=O)N2CCC[C@H]2C(=O)N[C@@H](CCCNC(=N)N)C(=O)NCC(N)=O)NC(=O)[C@H](CC(N)=O)NC(=O)[C@H]([C@@H](C)O)NC1=O [Inotocin] (H-CLITNCPRG-NH2; disulfide 1-6; N-terminus and C-terminus assumed)
calcium signal: no response to inotocin; also recorded: No calcium signal is detected; also recorded: does not respond to inotocin
